Patent US10100050B2 (CHIESI FARMACEUTICI S.P.A., priority 2015, dated 2018)
Structures can show the parent of a compound that is named as a salt.

Experiments:
[1] = system: Peripheral Blood Mononuclear Cells (PBMCs); assay: LPS-stimulated PBMC TNFα release assay; assay type: cell-based; conditions: IC50 classes; human PBMC, LPS 10 ng/ml, 18 h; read-out: LPS-stimulated PBMC TNFα release inhibition
In short: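 Human PBMCs from healthy donors, adhered 3 h in serum-free RPMI, received compound for 1 h in 1% FBS medium before 10 ng/ml LPS for 18 h. Supernatant TNFα was measured by MSD; IC50 from percentage inhibition of control release, at least three separate experiments.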

p38alpha = molecular target: T1, p38alpha (Homo sapiens, UniProt Q16539); assay: P38alpha enzyme inhibition assay (Alphascreen kinase activity assay); assay type: biochemical; conditions: IC50 classes; 2 hours preincubation at 25° C., 250 μM ATP; read-out: p38α inhibition
T1 construct: purchased Invitrogen PV3304
T1 sequence (Q16539 whole entry): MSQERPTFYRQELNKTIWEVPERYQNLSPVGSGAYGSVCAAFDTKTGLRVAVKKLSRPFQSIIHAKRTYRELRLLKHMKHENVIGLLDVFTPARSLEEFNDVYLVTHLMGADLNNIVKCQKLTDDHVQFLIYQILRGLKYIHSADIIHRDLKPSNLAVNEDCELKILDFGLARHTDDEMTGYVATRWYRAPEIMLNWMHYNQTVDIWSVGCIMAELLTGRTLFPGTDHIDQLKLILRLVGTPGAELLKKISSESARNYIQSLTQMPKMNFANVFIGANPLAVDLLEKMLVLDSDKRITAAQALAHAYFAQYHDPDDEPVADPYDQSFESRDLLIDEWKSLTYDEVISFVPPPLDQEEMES
In short: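 p38alpha with 0.3 μg/ml ATF-2 fusion protein in HEPES pH 7.5 buffer (10 mM MgCl2, 2 mM DTT, 1% DMSO); compounds preincubated 2 h at 25° C, then 250 μM ATP added for 1 h at 25° C. Phospho-ATF2 detected by AlphaScreen luminescence with anti-phospho-ATF2 antibody; IC50 from concentration-response curves.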

BEAS-2B cells = assay: TNFα-stimulated BEAS-2B IL-8 release assay; assay type: cell-based; conditions: Homo sapiens, IC50 classes, TNF-α 10 ng/ml, 18 h, read-out: TNFα-stimulated BEAS-2B IL-8 release inhibition
In short: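 BEAS-2B cells at 80-90% confluence were pre-incubated 1 h with p38 inhibitors, then stimulated 18 h at 37 °C with TNF-α (10 ng/ml). Supernatant IL-8 was measured by ELISA. IC50 was taken from sigmoidal variable-slope fits of % inhibition of control release.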

Compound | IC50 (p38alpha) [nM] | IC50 [1] [nM] | IC50 (BEAS-2B cells) [nM]
COc1c(CO)cc(C(C)(C)C)cc1NC(=O)N[C@H]1CC[C@@H](Oc2ccc3nnc(C(C)(C)N(C)C)n3c2)c2ccccc21 [Example 4, 1-(5-tert-Butyl-3-hydroxymethyl-2-methoxy-phenyl)-3-{(1S,4R)-4-[3-(1-dimethylamino-1-methyl-ethyl)-[1,2,4]triazolo[4,3-a]pyridin-6-yloxy]-1,2,3,4-tetrahydro-naphthalen-1-yl}-urea hydrochloride salt] | < 1 | < 1 | < 0.3
CN1CCC[C@]1(C)c1nnc2ccc(O[C@@H]3CC[C@H](NC(=O)Nc4cc(NS(C)(=O)=O)cc(C(C)(C)C)c4)c4ccccc43)cn12 [Example 20, N-[3-tert-Butyl-5-(3-{(1S,4R)-4-[3((R)-1,2-dimethyl-pyrrolidin-2-yl)-[1,2,4]triazolo[4,3-a]pyridin-6-yloxy]-1,2,3,4-tetrahydro-naphthalen-1-yl}-ureido)-phenyl]-methanesulfonamide] | < 1 | < 1 | < 0.3
COc1c(NC(C)=O)cc(C(C)(C)C)cc1NC(=O)N[C@H]1CC[C@@H](Oc2ccc3nnc([C@]4(C)CCCN4C)n3c2)c2ccccc21 [Example 8, N-[5-tert-Butyl-3-(3-{(1S,4R)-4-[3-((S)-1,2-dimethyl-pyrrolidin-2-yl)-[1,2,4]triazolo[4,3-a]pyridin-6-yloxy]-1,2,3,4-tetrahydro-naphthalen-1-yl}-ureido)-2-methoxy-phenyl]-acetamide] | 1 to 10 | < 1 | < 0.3
CN1CCC[C@H]1c1nnc2ccc(O[C@@H]3CC[C@H](NC(=O)Nc4cc(NS(C)(=O)=O)cc(C(C)(C)C)c4)c4ccccc43)cn12 [Example 21] | < 1 | 1 to 5 | 0.3 to 1
COc1c(CO)cc(C(C)(C)C)cc1NC(=O)N[C@H]1CC[C@@H](Oc2ccc3nnc([C@]4(C)CCCN4C)n3c2)c2ccccc21 [Example 3, 1-(5-tert-Butyl-3-hydroxymethyl-2-methoxy-phenyl)-3-{(1S,4R)-4-[-3-((S)-1,2-dimethyl-pyrrolidin-2-yl)-[1,2,4]triazolo[4,3-a]pyridin-6-yloxy]-1,2,3,4-tetrahydro-naphthalen-1-yl}-urea hydrochloride salt] | < 1 | < 1 | < 0.3
COc1c(NC(C)=O)cc(C(C)(C)C)cc1NC(=O)N[C@H]1CC[C@@H](Oc2ccc3nnc(C(C)(C)N(C)C)n3c2)c2ccccc21 [Example 10, N-[5-tert-Butyl-3-(3-{(1S,4R)-4-[3-(1-dimethylamino-1-methyl-ethyl)-[1,2,4]triazolo[4,3-a]pyridin-6-yloxy]-1,2,3,4-tetrahydro-naphthalen-1-yl}-ureido)-2-methoxy-phenyl]-acetamide] | 1 to 10 | < 1 | < 0.3
COc1c(NC(C)=O)cc(C(C)(C)C)cc1NC(=O)N[C@H]1CC[C@@H](Oc2ccc3nnc([C@@H]4CCCCN4C)n3c2)c2ccccc21 [Example 12, N-[5-tert-Butyl-2-methoxy-3-(3-{(1S,4R)-4-[3-((S)-1-methyl-piperidin-2-yl)-[1,2,4]triazolo[4,3-a]pyridin-6-yloxy]-1,2,3,4-tetrahydro-naphthalen-1-yl}-ureido)-phenyl]-acetamide] | < 1 | 1 to 5 | 0.3 to 1
COc1c(NC(C)=O)cc(C(C)(C)C)cc1NC(=O)N[C@H]1CC[C@@H](Oc2ccc3nnc([C@@H]4CCCN4C(C)C)n3c2)c2ccccc21 [Example 9, N-[5-tert-Butyl-3-(3-{(1S,4R)-4-[3-((S)-1-isopropyl-pyrrolidin-2-yl)-[1,2,4]triazolo[4,3-a]pyridin-6-yloxy]-1,2,3,4-tetrahydro-naphthalen-1-yl}-ureido)-2-methoxy-phenyl]-acetamide] | 1 to 10 | < 1 | < 0.3
CN1CCOC[C@H]1c1nnc2ccc(O[C@@H]3CC[C@H](NC(=O)Nc4cc(NS(C)(=O)=O)cc(C(C)(C)C)c4)c4ccccc43)cn12 [Example 25, N-[3-tert-Butyl-5-(3-{(1S,4R)-4-[3-((R)-4-methyl-morpholin-3-yl)-[1,2,4]triazolo[4,3-a]pyridin-6-yloxy]-1,2,3,4-tetrahydro-naphthalenyl}-ureido)-phenyl]-methanesulfonamide] | < 1 | > 5 | > 1

Now from value to molecule, other results behind:

IC50 (p38alpha) [nM] | Compound | IC50 [1] [nM] | IC50 (BEAS-2B cells) [nM]
< 1 | C[C@H]1CCCCN1c1nnc2ccc(O[C@@H]3CC[C@H](NC(=O)Nc4cc(CN(C)C)cc(C(C)(C)C)c4)c4ccccc43)cn12 [Example 66, 1-(3-tert-Butyl-5-dimethylaminomethyl-phenyl)-3-{(1S,4R)-4-[3-((S)-2-methyl-piperidin-1-yl)-[1,2,4]triazolo[4,3-a]pyridin-6-yloxy]-1,2,3,4-tetrahydro-naphthalen-1-yl}-urea] | 1 to 5 | < 0.3
< 1 | CN1CCC[C@@]1(CO)c1nnc2ccc(O[C@@H]3CC[C@H](NC(=O)Nc4cc(NS(C)(=O)=O)cc(C(C)(C)C)c4)c4ccccc43)cn12 [Example 33] | < 1 | 0.3 to 1
< 1 | CC(=O)OCc1cc(NC(=O)N[C@H]2CC[C@@H](Oc3ccc4nnc([C@@H]5CCCN5C)n4c3)c3ccccc32)cc(C(C)(C)C)c1 [Example 43, Acetic acid 3-tert-butyl-5-(3-{(1S,4R)-4-[3-((S)-1-methyl-pyrrolidin-2-yl)-[1,2,4]triazolo[4,3-a]pyridin-6-yloxy]-1,2,3,4-tetrahydro-naphthalen-1-yl}-ureido)-benzyl ester] | 1 to 5 | < 0.3
< 1 | CN1CCC[C@@]1(C)c1nnc2ccc(O[C@@H]3CC[C@H](NC(=O)Nc4cc(CS(C)(=O)=O)cc(C(C)(C)C)c4)c4ccccc43)cn12 [Example 42, 1-(3-tert-Butyl-5-methanesulfonylmethyl-phenyl)-3-{(1S,4R)-4-[3-((S)-1,2-dimethyl-pyrrolidin-2-yl)-[1,2,4]triazolo[4,3-a]pyridin-6-yloxy]-1,2,3,4-tetrahydro-naphthalen-1-yl}-urea] | < 1 | < 0.3
< 1 | CN1CCC[C@@]1(C)c1nnc2ccc(O[C@@H]3CC[C@H](NC(=O)Nc4cc(COCCN5CCOCC5)cc(C(C)(C)C)c4)c4ccccc43)cn12 [Example 72, 1-[3-tert-Butyl-5-(2-morpholin-4-yl-ethoxymethyl)-phenyl]-3-{(1S,4R)-4-[3-((S)-1,2-dimethyl-pyrrolidin-2-yl)-[1,2,4]triazolo[4,3-a]pyridin-6-yloxy]-1,2,3,4-tetrahydro-naphthalen-1-yl}-urea] | > 5 | 0.3 to 1
< 1 | CNS(=O)(=O)c1cc(NC(=O)N[C@H]2CC[C@@H](Oc3ccc4nnc([C@]5(C)CCCN5C)n4c3)c3ccccc32)cc(C(C)(C)C)c1 [Example 39, 3-tert-Butyl-5-(3-{(1S,4R)-4-[3-((S)-1,2-dimethyl-pyrrolidin-2-yl)-[1,2,4]triazolo[4,3-a]pyridin-6-yloxy]-1,2,3,4-tetrahydro-naphthalen-1-yl}-ureido)-N-methyl-benzenesulfonamide] | < 1 | < 0.3
< 1 | CN1CCC[C@@]1(C)c1nnc2ccc(O[C@@H]3CC[C@H](NC(=O)Nc4cc(N5CCNCC5)cc(C(C)(C)C)c4)c4ccccc43)cn12 [Example 64, 1-(3-tert-Butyl-5-piperazin-1-yl-phenyl)-3-{(1S,4R)-4-[3-((S)-1,2-dimethyl-pyrrolidin-2-yl)-[1,2,4]triazolo[4,3-a]pyridin-6-yloxy]-1,2,3,4-tetrahydro-naphthalen-1-yl}-urea] | > 5 | > 1
< 1 | CNC(=O)c1cc(NC(=O)N[C@H]2CC[C@@H](Oc3ccc4nnc([C@@H]5CCCN5C)n4c3)c3ccccc32)cc(C(C)(C)C)c1 [Example 54, 3-tert-Butyl-N-methyl-5-(3-{(1S,4R)-4-[3-((S)-1-methyl-pyrrolidin-2-yl)-[1,2,4]triazolo[4,3-a]pyridin-6-yloxy]-1,2,3,4-tetrahydro-naphthalen-1-yl}-ureido)-benzamide] | 1 to 5 | > 1
< 1 | Cc1c(NC(=O)N[C@H]2CC[C@@H](Oc3ccc4nnc([C@]5(C)CCCN5C)n4c3)c3ccccc32)cc(C(C)(C)C)cc1NS(C)(=O)=O [Example 56, N-[5-tert-Butyl-3-(3-{(1S,4R)-4-[3-((S)-1,2-dimethyl-pyrrolidin-2-yl)-[1,2,4]triazolo[4,3-a]pyridin-6-yloxy]-1,2,3,4-tetrahydro-naphthalen-1-yl}-ureido)-2-methyl-phenyl]-methanesulfonamide] | < 1 | < 0.3
< 1 | CCN1CCC[C@@]1(C)c1nnc2ccc(O[C@@H]3CC[C@H](NC(=O)Nc4cc(NS(C)(=O)=O)cc(C(C)(C)C)c4)c4ccccc43)cn12 [Example 27, N-[3-tert-Butyl-5-(3-{(1S,4R)-4-[3-((S)-1-ethyl-2-methyl-pyrrolidin-2-yl)-[1,2,4]triazolo[4,3-a]pyridin-6-yloxy]-1,2,3,4-tetrahydro-naphthalen-1-yl}-ureido)-phenyl]-methanesulfonamide] | < 1 | < 0.3
